Data on seven molecules can be found in patent US20260226048A1, “MULTI-CYCLIC IRAK AND FLT3 INHIBITING COMPOUNDS AND USES THEREOF” (CHILDREN'S HOSPITAL MEDICAL CENTER, priority 2023, published 2026).

One test addresses T1, FLT3 ITD (Homo sapiens, UniProt P36888).
T1 construct: fused on or other part: DNA tag for qPCR detection (kinase-tagged T7 phage, or made in HEK-293 cells and then tagged with DNA)
T1 sequence (P36888 1-993): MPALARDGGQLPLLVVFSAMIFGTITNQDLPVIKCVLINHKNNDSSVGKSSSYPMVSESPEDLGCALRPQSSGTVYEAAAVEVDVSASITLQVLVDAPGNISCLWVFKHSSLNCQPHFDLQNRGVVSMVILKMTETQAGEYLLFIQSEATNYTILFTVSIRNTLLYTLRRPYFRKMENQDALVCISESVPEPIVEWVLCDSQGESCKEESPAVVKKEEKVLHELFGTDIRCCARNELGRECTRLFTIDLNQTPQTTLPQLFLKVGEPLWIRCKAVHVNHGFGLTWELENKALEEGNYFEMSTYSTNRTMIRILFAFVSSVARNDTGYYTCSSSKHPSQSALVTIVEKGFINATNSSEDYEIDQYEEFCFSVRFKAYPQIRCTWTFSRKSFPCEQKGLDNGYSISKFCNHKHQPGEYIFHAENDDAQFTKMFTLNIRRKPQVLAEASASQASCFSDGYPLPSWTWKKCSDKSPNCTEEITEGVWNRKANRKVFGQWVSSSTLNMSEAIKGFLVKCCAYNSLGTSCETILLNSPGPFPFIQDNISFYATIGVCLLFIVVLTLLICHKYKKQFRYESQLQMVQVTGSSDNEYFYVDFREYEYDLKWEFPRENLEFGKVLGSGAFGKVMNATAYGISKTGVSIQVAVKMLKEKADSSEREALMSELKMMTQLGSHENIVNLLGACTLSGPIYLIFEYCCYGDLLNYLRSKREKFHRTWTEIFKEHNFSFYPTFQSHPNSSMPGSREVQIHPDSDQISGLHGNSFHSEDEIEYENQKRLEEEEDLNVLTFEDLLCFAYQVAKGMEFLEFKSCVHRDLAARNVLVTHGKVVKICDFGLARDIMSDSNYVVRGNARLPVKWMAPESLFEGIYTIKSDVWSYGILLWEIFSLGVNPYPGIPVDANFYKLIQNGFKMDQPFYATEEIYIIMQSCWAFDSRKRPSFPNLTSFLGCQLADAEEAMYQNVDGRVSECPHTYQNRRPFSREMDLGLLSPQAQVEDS
As to the kind of experiment: DiscoverX KINOMEscan competition binding assay, FLT3 ITD. As to conditions: 11-point 3-fold dilution. From the text:
(§1) […]. […] As a result, the data report thermodynamic interaction affinities (Kd values), rather than IC50 values that are dependent on ATP concentrations. The assay uses a DNA-tagged version of the protein kinase, and an immobilized ligand bound to a solid support. Compounds that directly or indirectly prevent kinase binding to the immobilized ligand reduce the amount of kinase captured on the solid support, which is detected using an ultra-sensitive qPCR method. Affinity constants reported from the assay have been reported to be independent of the immobilized ligand used that is coupled to the solid support (See supplemental information in Fabian, M. A. et. al., (2005) Nat. Biotechnol. 23, 329-336; Wodicka, L. M. et. al., (2010) Chem. Biol. 17, 1241-1249.)
(§2) Kinase-tagged T7 phage strains were prepared in an E. coli host derived from the BL21 strain. E. coli were grown to log-phase and infected with T7 phage and incubated with shaking at 32° C. until lysis. The lysates were centrifuged and filtered to remove cell debris. The remaining kinases were produced in HEK-293 cells and subsequently tagged with DNA for qPCR detection. Streptavidin-coated magnetic beads were treated with biotinylated small molecule ligands for 30 minutes at room temperature to generate affinity resins for kinase assays. The liganded beads were blocked with excess biotin and washed with blocking buffer (SeaBlock (Pierce), 1% BSA, 0.05% Tween 20, 1 mM DTT) to remove unbound ligand and to reduce non-specific binding. […] Test compounds were prepared as 111× stocks in 100% DMSO. Kds were determined using an 11-point 3-fold compound dilution series with three DMSO control points. All compounds for Kd measurements are distributed by acoustic transfer (non-contact dispensing) in 100% DMSO. The compounds were then diluted directly into the assays such that the final concentration of DMSO was 0.9%. All reactions were performed in polypropylene 384-well plates. Each was a final volume of 0.02 mL. […] The kinase concentration in the eluates was measured by qPCR.
(§3) Binding constants (Kds) were calculated with a standard dose-response curve using the Hill equation. The Hill Slope was set to −1. Curves were fitted using a non-linear least square fit with the Levenberg-Marquardt algorithm.

In the next test the target is T2, IRAK4 (Homo sapiens, UniProt Q9NWZ3).
T2 sequence (Q9NWZ3 1-460): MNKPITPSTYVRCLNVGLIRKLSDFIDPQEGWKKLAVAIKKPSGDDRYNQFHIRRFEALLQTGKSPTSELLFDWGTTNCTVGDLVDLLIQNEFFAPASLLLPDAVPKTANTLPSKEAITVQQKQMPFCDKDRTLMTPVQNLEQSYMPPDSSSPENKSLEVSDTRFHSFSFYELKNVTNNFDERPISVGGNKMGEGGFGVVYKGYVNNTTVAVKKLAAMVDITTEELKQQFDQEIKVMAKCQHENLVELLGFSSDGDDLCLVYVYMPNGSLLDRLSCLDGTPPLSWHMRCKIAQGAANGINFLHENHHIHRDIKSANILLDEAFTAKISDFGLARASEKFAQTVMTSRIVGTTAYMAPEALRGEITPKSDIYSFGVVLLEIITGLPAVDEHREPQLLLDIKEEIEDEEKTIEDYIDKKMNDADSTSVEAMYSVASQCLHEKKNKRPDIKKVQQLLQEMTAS
As to the kind of experiment: DiscoverX KINOMEscan competition binding assay, IRAK4. As to conditions: 11-point 3-fold dilution. Set-up: purchased Reaction Biology (RBC HotSpot).
Description: as §1, §2, §3

A value given as a limit tells only on which side of the number the result lay.

A word on the Kd: it is the concentration at which binding is half-saturated. As to `COc1cc2ncc(-c3nc(N[C@H]4CNCC[C@@H]4F)ncc3F)n2nc1C1CC1` [Compound 1a, 4-(6-cyclopropyl-7-methoxyimidazo[1,2-b]pyridazin-3-yl)-5-fluoro-N-((3S,4S)-4-fluoropiperidin-3-yl)pyrimidin-2-amine], the figures for the dissociation constant (Kd) on FLT3 ITD and at IRAK4 were 0.21 nM and less than 0.17 nM, respectively.
The corresponding values for `FC(F)COc1cc2ncc(-c3ccnc(N[C@H]4CNCC[C@@H]4F)n3)n2nc1C1CC1` [Compound 4a, 4-(6-cyclopropyl-7-(2,2-difluoroethoxy)imidazo[1,2-b]pyridazin-3-yl)-N-((3 S,4S)-4-fluoropiperidin-3-yl)pyrimidin-2-amine] are 1.7 nM and 0.59 nM.
In the same order, the values of `COc1cc2ncc(-c3nc(N[C@H]4CNCC[C@@H]4F)ncc3F)n2nc1C(C)(C)O` [Compound 45a, 2-(3-(5-fluoro-2-(((3S,4S)-4-fluoropiperidin-3-yl)amino)pyrimidin-4-yl)-7-methoxyimidazo[1,2-b]pyridazin-6-yl)propan-2-ol] are less than 0.17 nM and 0.58 nM.
As to `CC(C)(O)c1ccc2ncc(-c3nc(N[C@H]4CNCC[C@@H]4F)ncc3F)n2c1` [Compound 46a, 2-(3-(5-fluoro-2-(((3S,4S)-4-fluoropiperidin-3-yl)amino)pyrimidin-4-yl)imidazo[1,2-a]pyridin-6-yl)propan-2-ol], the Kd at FLT3 ITD is 0.19 nM; at IRAK4, less than 0.17 nM.
Regarding `COc1cc2ncc(-c3nc(N[C@H]4CNCC[C@@H]4F)ncc3F)n2nc1C1COC1` [Compound 92a, 5-fluoro-N-((3S,4S)-4-fluoropiperidin-3-yl)-4-(7-methoxy-6-(oxetan-3-yl)imidazo[1,2-b]pyridazin-3-yl)pyrimidin-2-amine], the Kd on FLT3 ITD was 0.21 nM; on IRAK4, less than 0.17 nM.
In the same order, the values of `CC(C)(O)c1cn2c(-c3nc(N[C@H]4CNCC[C@@H]4F)ncc3F)cnc2cn1` [Compound 100a, 2-(3-(5-fluoro-2-(((3S,4S)-4-fluoropiperidin-3-yl)amino)pyrimidin-4-yl)imidazo[1,2-a]pyrazin-6-yl)propan-2-ol] are 2.7 nM and 1.5 nM.
The corresponding values for `COc1cc2ncc(-c3nc(N[C@H]4CNCC[C@@H]4F)ncc3F)n2nc1N1CCCS1(=O)=O` [Compound 112a, 2-(3-(5-fluoro-2-(((3S,4S)-4-fluoropiperidin-3-yl)amino)pyrimidin-4-yl)-7-methoxyimidazo[1,2-b]pyridazin-6-yl)isothiazolidine 1,1-dioxide] are 0.2 nM and 0.61 nM.
